Experimental data reported in patent US20080119488A1, “Modulators Of Nuclear Receptors” (EXELIXIS, INC., priority 2004, published 2008).

Target: T1, LXRα or LXRβ
T1 construct: fused on or other part: N-terminal poly-His tag from the pBacPakhis1 vector
Test: Saturation binding of [3H] 24,25 epoxycholesterol (EC) to the receptor
Design: species or system human
Settings: as determined by saturation binding; typical value used for the Cheng and Prusoff equation
Experimental: The SPA assay measures the radioactive signal generated by the binding of ^3H-24,25-epoxycholesterol to LXRα or LXRβ. The basis of the assay is the use of SPA beads containing a scintillant, such that when binding to the receptor brings the labeled ligand into proximity with the bead, the energy from the label stimulates the scintillant to emit light. The light is measured using a standard microplate scintillation reader. The ability of a ligand to bind to a receptor can be measured by assessing the degree to which the compound can compete off a radiolabelled ligand with known affinity for the receptor.
For this assay, typically the Concentration of Ligand=50 nM and the Kd of EC for the receptor is 200 nM as determined by saturation binding.

C[C@H](CCC1OC1(C)C)[C@H]1CC[C@H]2[C@@H]3CC=C4C[C@@H](O)CC[C@]4(C)[C@H]3CC[C@]12C (stereo partly shown) [EC, 24,25 Epoxycholesterol]
Kd: 200 nM
